# Test results published in US12678498B2, “FGFR/PD-1 combination therapy for the treatment of cancer” (ASTEX THERAPEUTICS LTD, priority 2015, dated 2026).
# Assays:
# [1] = tested on: PBMCs from CMV-reactive donors stimulated with CMV antigen; experiment: Cytomegalovirus antigen assay (CMV), IFN-γ in supernatant by MSD; assay type: cell-based; details: JNJ42756493 alone at 100, 1 or 0.01 nM; 6 days after treatment
# Procedure: FIG. 5 illustrates the effect of JNJ42756493 on IFN-γ levels induced by anti-PD-1 antibodies in a Cytomegalovirus antigen assay (CMV) Assay. Peripheral blood mononuclear cells (PMBCs) were stimulated with CMV antigen and treated with anti-PD-1 antibodies (concentration left to right—30, 10, 3.33, 1.11, 0.37, 0.12 nM) as indicated. JNJ42756493 was added at 100, 1, or 0.01 nM alone (concentrations left to right), together with anti-PD-1 antibodies (100, 1, or 0.01 nM JNJ42756493 together with 30, 10, 3.33, 1.11, 0.37, or 0.12 nM of anti-PD-1 antibody), or in the presence of isotype control (IC). 6 days after treatment, IFN-γ levels in the supernatant were measured by MSD.
# In the CMV assay, PBMCs from CMV-reactive donors were stimulated by the addition of CMV antigen. CMV-reactive T cells are active, expand and secrete pro-inflammatory cytokines such as IFN-γ. […] In contrast, JNJ42756493 alone had no impact on cytokine levels (FIG. 5, JNJ-493 alone).
# [2] = tested on: peripheral blood mononuclear cells (PBMCs) from normal donors; experiment: Immune cell viability of PBMCs by CellTiter-Glo; assay type: cell-based; details: increasing concentrations up to 1 μM, days 1, 2, 5 and 6
# Procedure: To determine the effects of JNJ427564493 on immune cell viability in vitro, peripheral blood mononuclear cells (PBMCs) from normal donors were stimulated with anti-CD3 antibodies to activate T cells, in the presence of increasing concentrations of JNJ42756493. Unstimulated PBMCs were also included to determine if JNJ42756493 affected unactivated immune populations. Cell viability was assessed at four different time points, over 6 days.
smiles,measurement,setting,value
"COc1cc(OC)cc(N(CCNC(C)C)c2ccc3ncc(-c4cnn(C)c4)nc3c2)c1 [JNJ42756493, N-(3,5-dimethoxyphenyl)-N′-(1-methylethyl)-N-[3-(1-methyl-1H-pyrazol-4-yl)quinoxalin-6-yl]ethane-1,2-diamine]",cytokine (IFN-γ) levels,[1],no impact
same,cell viability (luminescence signal),[2]; PBMCs stimulated with anti-CD3 antibodies,remained constant
same,cell viability (luminescence signal),[2]; unstimulated PBMCs,remained constant
